Reference: PMC9000887, “Novel 1,2,3-Triazole-Coumarin Hybrid Glycosides and Their Tetrazolyl Analogues: Design, Anticancer Evaluation and Molecular Docking Targeting EGFR, VEGFR-2 and CDK-2” (Molecules, 2022)

Assays:
[1] = tested on: human prostate (PC-3) cancer cell line; assay: MTT cytotoxicity assay, PC-3; conditions: Homo sapiens; for inhibition at 100 µM: read-out: % Inhibition PC-3; for IC50: read-out: IC50 (Mean ± SEM) PC-3
Method: (§1) After 48 h incubation, the medium was aspirated and then 40 μL MTT salt (2.5 mg/mL) was added for a further 4 h. […] Doxorubicin was used as the positive control and 0.5% DMSO was used as the negative control.

[2] = tested on: human melanoma (A-375) cancer cell line; assay: MTT cytotoxicity assay, A-375; conditions: Homo sapiens; for inhibition at 100 µM: A-375, read-out: % Inhibition A-375; for IC50: A-375, read-out: IC50 (Mean ± SEM) A-375
Method: as §1

[3] = tested on: human pancreatic (Paca-2) cancer cell line; assay: MTT cytotoxicity assay, Paca-2; conditions: Homo sapiens; for inhibition at 100 µM: PaCa-2, read-out: % Inhibition Paca-2; for IC50: PaCa-2, read-out: IC50 (Mean ± SEM) Paca-2
Method: as §1

[4] = tested on: human colon (Caco-2) cancer cell line; assay: MTT cytotoxicity assay, Caco-2; conditions: for % Inhibition Caco-2: Caco-2, at 100 µM, MTT, (-) No activity detected; for IC50: read-out: IC50 (Mean ± SEM) Caco-2, Caco-2, MTT, three independent determinations
Method: as §1

[5] = tested on: human melanoma (Mel-501) cancer cell line; assay: MTT cytotoxicity assay, Mel-501; conditions: Homo sapiens; for inhibition at 100 µM: read-out: % Inhibition Mel-501; for IC50: read-out: IC50 (Mean ± SEM) Mel-501
Method: as §1

EGFR = EGFR (Homo sapiens, UniProt P00533); assay: In vitro kinase inhibitory assessment, EGFR (Kinase-Glo luminescence); assay type: biochemical; conditions: mean of three values; read-out: IC50 (Mean ± SEM) EGFR
VEGFR-2 = VEGFR-2 (Homo sapiens, UniProt P35968); assay: biochemical
Method: The cells were harvested, and the homogenates were prepared in saline using a tight pestle homogenizer until complete cell disruption. The kit used a double-antibody sandwich enzyme-linked immunosorbent assay (ELISA) to determine the level of human VEGFR-2 in samples. A monoclonal antibody for VEGFR-2 was pre-coated onto 96-well plates. The test samples were added to the wells and a biotinylated detection polyclonal antibody from goat specific for VEGFR-2 was added, subsequently followed by washing with PBS buffer. Avidin–Biotin–Peroxidase complex was added, and the unbound conjugates were washed away with PBS buffer. HRP substrate TMB was used to visualize HRP enzymatic reaction. TMB was catalysed by HRP to produce a blue colour product that changed into yellow after the addition of acidic stop solution. The density of yellow colour is proportional to the human VEGFR-2 amount of the sample captured in the plate. The chroma of colour and the concentration of the human VEGFR-2 of the samples were positively correlated and the optical density was determined at 450 nm. The level of human VEGFR-2 in samples was calculated (pg/mL) as duplicate determinations from the standard curve. The % inhibition was calculated in comparison to control untreated cells.

CDK-2/cyclin A2 = CDK-2/cyclin A2 (Homo sapiens, UniProt P24941); assay: In vitro kinase inhibitory assessment, CDK-2/cyclin A2 (ELISA); assay type: biochemical; conditions: mean of three values; read-out: IC50 (Mean ± SEM) CDK-2/Cyclin A2
Method: Assay of CDK-2/cyclin A2 was achieved through ELISA using an affinity tag labelled capture antibody. Adding the samples and the standard to the wells was carried out after the addition of the antibody mix. After the incubation period, the unrestrained substance was discarded and the wells were washed. The added TMB (3,3′,5,5′-tetramethylbenzidine) substrate was prompted by Horseradish peroxidase (HRP) and blue coloration appeared. This reaction was stopped with the addition of stop solution to complete the change in colour from blue to yellow. The created signals were equivalent to the quantity of bound analyte and Robonik P2000 ELISA reader was used to record the intensity at a certain wavelength (450 nm). The concentrations of the screened compounds were calculated through the plotted curve.

VEGFR-2, sequence (P35968 20-1356): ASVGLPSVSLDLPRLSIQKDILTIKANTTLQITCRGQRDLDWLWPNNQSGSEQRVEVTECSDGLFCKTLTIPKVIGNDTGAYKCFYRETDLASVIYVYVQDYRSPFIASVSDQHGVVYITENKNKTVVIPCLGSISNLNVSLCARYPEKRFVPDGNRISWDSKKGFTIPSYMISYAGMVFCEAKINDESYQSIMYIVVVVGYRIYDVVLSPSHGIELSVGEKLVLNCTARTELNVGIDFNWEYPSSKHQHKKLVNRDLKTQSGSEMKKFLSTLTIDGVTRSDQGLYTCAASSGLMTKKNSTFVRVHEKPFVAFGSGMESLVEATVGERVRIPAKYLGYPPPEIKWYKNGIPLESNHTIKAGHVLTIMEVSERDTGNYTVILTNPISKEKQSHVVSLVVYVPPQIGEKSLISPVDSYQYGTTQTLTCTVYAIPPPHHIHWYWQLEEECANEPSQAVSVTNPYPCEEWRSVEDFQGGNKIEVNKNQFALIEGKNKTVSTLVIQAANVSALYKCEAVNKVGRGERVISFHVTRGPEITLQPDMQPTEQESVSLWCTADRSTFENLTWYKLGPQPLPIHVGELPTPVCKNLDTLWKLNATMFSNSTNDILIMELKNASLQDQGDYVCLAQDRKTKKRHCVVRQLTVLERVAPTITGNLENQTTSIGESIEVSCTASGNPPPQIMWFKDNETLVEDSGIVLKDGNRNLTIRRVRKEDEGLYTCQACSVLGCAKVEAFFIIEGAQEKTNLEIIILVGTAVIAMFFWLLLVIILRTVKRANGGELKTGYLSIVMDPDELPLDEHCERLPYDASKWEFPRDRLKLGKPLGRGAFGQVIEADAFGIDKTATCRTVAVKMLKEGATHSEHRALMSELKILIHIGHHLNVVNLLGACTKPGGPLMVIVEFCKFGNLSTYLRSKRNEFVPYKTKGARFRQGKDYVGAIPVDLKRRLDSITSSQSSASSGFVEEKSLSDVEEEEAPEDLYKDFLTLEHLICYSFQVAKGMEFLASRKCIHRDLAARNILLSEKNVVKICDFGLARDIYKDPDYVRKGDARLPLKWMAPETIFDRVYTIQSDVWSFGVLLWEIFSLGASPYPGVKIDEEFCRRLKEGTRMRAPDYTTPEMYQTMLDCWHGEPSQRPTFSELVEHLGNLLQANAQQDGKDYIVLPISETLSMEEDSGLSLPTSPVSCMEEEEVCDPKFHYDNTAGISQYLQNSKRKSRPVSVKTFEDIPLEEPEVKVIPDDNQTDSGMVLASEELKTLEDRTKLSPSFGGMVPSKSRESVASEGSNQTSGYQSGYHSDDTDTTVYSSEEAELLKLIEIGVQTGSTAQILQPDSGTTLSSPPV
EGFR, sequence (P00533 25-1210): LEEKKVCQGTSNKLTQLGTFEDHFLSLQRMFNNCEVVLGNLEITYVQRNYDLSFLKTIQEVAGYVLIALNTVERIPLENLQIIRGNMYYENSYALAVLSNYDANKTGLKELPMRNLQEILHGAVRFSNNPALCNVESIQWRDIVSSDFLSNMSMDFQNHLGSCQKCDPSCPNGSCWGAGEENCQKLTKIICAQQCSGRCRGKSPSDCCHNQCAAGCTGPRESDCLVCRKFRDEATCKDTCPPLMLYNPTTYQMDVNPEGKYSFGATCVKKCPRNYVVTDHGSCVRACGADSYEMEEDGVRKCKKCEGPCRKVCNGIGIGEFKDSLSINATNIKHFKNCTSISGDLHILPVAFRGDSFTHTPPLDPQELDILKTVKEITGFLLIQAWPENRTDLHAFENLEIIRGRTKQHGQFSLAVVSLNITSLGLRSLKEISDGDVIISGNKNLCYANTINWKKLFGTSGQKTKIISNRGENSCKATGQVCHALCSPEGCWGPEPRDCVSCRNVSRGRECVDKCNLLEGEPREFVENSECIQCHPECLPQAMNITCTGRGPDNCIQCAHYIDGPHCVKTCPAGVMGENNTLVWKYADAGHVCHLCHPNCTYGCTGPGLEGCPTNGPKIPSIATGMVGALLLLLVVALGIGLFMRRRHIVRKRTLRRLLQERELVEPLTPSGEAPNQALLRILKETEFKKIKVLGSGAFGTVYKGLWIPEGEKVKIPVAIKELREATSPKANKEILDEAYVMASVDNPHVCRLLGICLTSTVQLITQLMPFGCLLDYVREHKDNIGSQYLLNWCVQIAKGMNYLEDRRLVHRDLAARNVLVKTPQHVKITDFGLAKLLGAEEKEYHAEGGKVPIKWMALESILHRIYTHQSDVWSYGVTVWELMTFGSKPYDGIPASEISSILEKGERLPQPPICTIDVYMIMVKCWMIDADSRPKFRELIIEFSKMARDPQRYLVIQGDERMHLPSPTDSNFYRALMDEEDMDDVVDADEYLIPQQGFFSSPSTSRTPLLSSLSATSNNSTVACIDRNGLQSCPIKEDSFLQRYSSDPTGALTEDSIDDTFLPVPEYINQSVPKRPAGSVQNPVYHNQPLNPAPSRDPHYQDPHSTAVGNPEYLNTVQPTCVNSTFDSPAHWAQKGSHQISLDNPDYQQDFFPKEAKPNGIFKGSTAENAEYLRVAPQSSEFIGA

SMILES | melting point [°C] | IC50 (EGFR) [µM] | IC50 (VEGFR-2) [µM] | IC50 (CDK-2/cyclin A2) [µM] | inhibition at 100 µM [1] [%] | inhibition at 100 µM [2] [%] | IC50 [2] [µM] | inhibition at 100 µM [3] [%] | IC50 [3] [µM] | % Inhibition Caco-2 [4] [%] | inhibition at 100 µM [5] [%] | IC50 [5] [µM] | IC50 [1] [µM] | IC50 [4] [µM]
O=c1cc(-c2ccccc2)c2ccc(O)cc2o1 [Compound 1, 7-hydroxy-4-phenyl-2H-chromen-2-one] | – | – | – | – | 55.7 | 95 | 12.9 ± 0.6 | 79 | 62.3 ± 1.3 | 40.5 | 96.2 | 28.6 ± 0.4 | – | –
N#CCOc1ccc2c(-c3ccccc3)cc(=O)oc2c1 [Compound 2, 2-((2-Oxo-4-phenyl-2H-chromen-7-yl)oxy)acetonitrile] | 183 to 184 | – | – | – | 10.5 | 6.5 | – | 44.1 | – | – | 35.6 | – | – | –
O=c1cc(-c2ccccc2)c2ccc(OCc3nn[nH]n3)cc2o1 [Compound 3, 7-((2H-Tetrazol-5-yl)methoxy)-4-phenyl-2H-chromen-2-one] | 219 to 221 | – | – | – | 12.2 | 55.3 | – | 55.6 | – | – | 48.4 | – | – | –
O=c1cc(-c2ccccc2)c2ccc(OCc3nnn([C@@H]4O[C@H](CO)[C@H](O)[C@H](O)[C@H]4O)n3)cc2o1 [Compound 7] | 204 to 205 | – | – | – | 0 | 13.8 | – | 21.3 | – | – | 22.3 | – | – | –
O=c1cc(-c2ccccc2)c2ccc(OCc3nnn([C@@H]4OC[C@@H](O)[C@H](O)[C@H]4O)n3)cc2o1 [Compound 8] | 195 to 196 | – | – | – | 98.1 | 95 | 13.9 ± 0.2 | 96.5 | 23.8 ± 0.9 | 97 | 98.1 | 19.4 ± 0.4 | 48.2 ± 0.7 | 52.5 ± 1.3
O=c1cc(-c2ccccc2)c2ccc(OCc3nnn(CCOCCO)n3)cc2o1 [Compound 9, 7-((2-(2-(2-Hydroxyethoxy)ethyl)-2H-tetrazol-5-yl)methoxy)-4-phenyl-2H-chromen-2-one] | – | – | – | – | 95.9 | 84.1 | 15 ± 0.04 | 94.7 | 28.3 ± 0.7 | 99.5 | 97.7 | 30.2 ± 0.5 | 47.4 ± 1.4 | 38.1 ± 0.4
C#CCOc1ccc2c(-c3ccccc3)cc(=O)oc2c1 [Compound 11, 4-Phenyl-7-(prop-2-yn-1-yloxy)-2H-chromen-2-one] | 116 to 117 | – | – | – | 16.7 | 9.1 | – | 58.1 | – | 0 | 44 | – | – | –
O=c1cc(-c2ccccc2)c2ccc(OCc3cn([C@@H]4OC[C@@H](O)[C@H](O)[C@H]4O)nn3)cc2o1 [Compound 18, 4-Phenyl-7-((1-(β-D-Xylopyranosyl)-1H-1,2,3-triazol-4-yl)methoxy)-2H-chromen-2-one] | 177 to 178 | – | – | – | 91.4 | 97.9 | 8.5 ± 0.3 | 96.9 | 36.4 ± 1.2 | 99.4 | 98.5 | 10 ± 0.1 | 37.6 ± 0.4 | 61.9 ± 1.3
COc1cccc2c1C(=O)c1c(O)c3c(c(O)c1C2=O)C[C@@](O)(C(=O)CO)C[C@@H]3O[C@H]1C[C@H](N)[C@H](O)[C@H](C)O1 [Doxorubicin, reference compound] | – | – | – | – | – | – | 4.5 ± 0.07 | – | 19.4 ± 0.5 | – | – | 3.5 ± 0.3 | 6.8 ± 0.2 | 3.7 ± 0.2

Further lines, with some results ahead:

melting point [°C] | IC50 (EGFR) [µM] | IC50 (VEGFR-2) [µM] | IC50 (CDK-2/cyclin A2) [µM] | SMILES | inhibition at 100 µM [1] [%] | inhibition at 100 µM [2] [%] | IC50 [2] [µM] | inhibition at 100 µM [3] [%] | IC50 [3] [µM] | % Inhibition Caco-2 [4] [%] | inhibition at 100 µM [5] [%] | IC50 [5] [µM] | IC50 [1] [µM] | IC50 [4] [µM]
122 to 124 | – | – | – | CC(=O)OC[C@H]1O[C@@H](n2nnc(COc3ccc4c(-c5ccccc5)cc(=O)oc4c3)n2)[C@H](OC(C)=O)[C@@H](OC(C)=O)[C@H]1OC(C)=O [Compound 5, 4-Phenyl-7-((1-(2,3,4,6-tetra-O-actyl-β-D-galactopyranosyl)-2H-tetrazol-5-yl)methoxy)-2H-chromen-2-one] | 15 | 23.1 | – | 56.9 | – | – | 68.4 | 72.1 ± 1.2 | – | –
131 to 132 | 66 ± 0.01 | 45 ± 0.1 | 0.5 ± 0.11 | CC(=O)OC[C@H]1O[C@@H](n2cc(COc3ccc4c(-c5ccccc5)cc(=O)oc4c3)nn2)[C@H](OC(C)=O)[C@@H](OC(C)=O)[C@@H]1OC(C)=O [Compound 13, 4-Phenyl-7-((1-(2,3,4,6-Tetra-O-acetyl-β-D-glucopyranosyl)-1H-1,2,3-triazol-4-yl)methoxy)-2H-chromen-2-one] | 95.6 | 96.9 | 14.5 ± 0.2 | 97.6 | 14.6 ± 1.1 | 99.6 | 98.5 | 16.7 ± 0.3 | 22.3 ± 0.6 | 40.5 ± 0.9
93 to 94 | – | – | – | CC(=O)OC[C@H]1O[C@@H](n2cc(COc3ccc4c(-c5ccccc5)cc(=O)oc4c3)nn2)[C@H](OC(C)=O)[C@@H](OC(C)=O)[C@H]1OC(C)=O [Compound 14, 4-Phenyl-7-((1-(2,3,4,6-tetra-O-acetyl-β-D-galactopyranosyl)-1H-1,2,3-triazol-4-yl)methoxy)-2H-chromen-2-one] | 80.2 | 96.8 | 12.4 ± 0.3 | 94.9 | 33.4 ± 0.6 | 89.8 | 77.1 | 65.1 ± 1.2 | 51.3 ± 1.6 | 70.2 ± 1.4
89 to 90 | 53 ± 0.15 | 40 ± 0.05 | 0.48 ± 0.15 | CC(=O)OC1COC(n2cc(COc3ccc4c(-c5ccccc5)cc(=O)oc4c3)nn2)C(OC(C)=O)C1OC(C)=O [Compound 15, 4-Phenyl-7-((1-(2,3,4-tria-O-acetyl-β-D-xylopyranosyl)-1H-1,2,3-triazol-4-yl)methoxy)-2H-chromen-2-one] | 98.2 | 94.7 | 9.9 ± 1 | 95 | 16.9 ± 0.9 | 99.3 | 97.8 | 4.1 ± 0.3 | 12.5 ± 0.9 | 20.4 ± 0.6
180 to 182 | – | – | – | O=c1cc(-c2ccccc2)c2ccc(OCc3cn([C@@H]4O[C@H](CO)[C@@H](O)[C@H](O)[C@H]4O)nn3)cc2o1 [Compound 16, 4-Phenyl-7-((1-(β-D-glucopyranosyl)-1H-1,2,3-triazol-4-yl)methoxy)-2H-chromen-2-one] | 95.8 | 97.5 | 16.3 ± 0.6 | 96.9 | 23.8 ± 1.1 | 99 | 99.1 | 26.5 ± 0.7 | 36.4 ± 1.1 | 48.1 ± 0.4
185 to 186 | – | – | – | O=c1cc(-c2ccccc2)c2ccc(OCc3cn([C@@H]4O[C@H](CO)[C@H](O)[C@H](O)[C@H]4O)nn3)cc2o1 [Compound 17, 4-Phenyl-7-((1-(β-D-galactopyranosyl)-1H-1,2,3-triazol-4-yl)methoxy)-2H-chromen-2-one] | 97.3 | 98.5 | 39.6 ± 0.5 | 96.3 | 33.3 ± 0.5 | 95.6 | 98.6 | 35.8 ± 0.7 | 41 ± 2.1 | 48.1 ± 0.8
